Measurements published in US10597388B2, “Pyridazinone herbicides” (FMC CORPORATION, priority 2014, dated 2020).

Legend:
Test in all cases: Test E greenhouse herbicide test, pre- and postemergence
Format in all cases: in vivo
[1] = test system: Italian ryegrass (Lolium multiflorum)
Procedure, shortened: (§1)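 Compounds in surfactant-containing solvent are applied to soil right after sowing (silt loam) and, in parallel, to 1- to 4-leaf plants in a peat-based medium. Weed control is scored visually on a 0 (none) to 100 (complete) scale at 14 to 21 d.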

[2] = test system: arrowleaf sida (Sida rhombifolia)
Procedure, shortened: as §1

[3] = test system: beggarticks (hairy beggarticks, Bidens pilosa)
Procedure, shortened: as §1

[4] = test system: corn (Zea mays)
Procedure, shortened: as §1

[5] = test system: crabgrass, large (large crabgrass, Digitaria sanguinalis); settings: Preemergence
Procedure, shortened: as §1

[6] = test system: field bindweed (Convolvulus arvensis)
Procedure, shortened: as §1

[7] = test system: foxtail, giant (giant foxtail, Setaria faberii); settings: Preemergence
Procedure, shortened: as §1

[8] = test system: foxtail, green (green foxtail, Setaria viridis); settings: Preemergence
Procedure, shortened: as §1

[9] = test system: horseweed (Conyza canadensis)
Procedure, shortened: as §1

[10] = test system: lambsquarters (Chenopodium album); settings: Preemergence
Procedure, shortened: as §1

[11] = test system: momingglory (Ipomoea coccinea); settings: Preemergence
Procedure, shortened: as §1

[12] = test system: nightshade (eastern black nightshade, Solanum ptycanthum); settings: Preemergence
Procedure, shortened: as §1

[13] = test system: panicum, fall (fall panicum, Panicum dichotomiflorum)
Procedure, shortened: as §1

[14] = test system: ragweed (common ragweed, Ambrosia elatior)
Procedure, shortened: as §1

[15] = test system: sandbur (southem sandbur, Cenchrus echinatus)
Procedure, shortened: as §1

[16] = test system: velvetleaf (Abutilon theophrasti); settings: Preemergence
Procedure, shortened: as §1

[17] = 62 g ai/ha, Postemergence, scale 0 to 100 (0 no effect, 100 complete control)
[18] = 62 g ai/ha, Preemergence, scale 0 to 100 (0 no effect, 100 complete control)
[19] = 125 g ai/ha, Postemergence, scale 0 to 100 (0 no effect, 100 complete control)
[20] = 125 g ai/ha, Preemergence, scale 0 to 100 (0 no effect, 100 complete control)
[21] = 250 g ai/ha, Postemergence, scale 0 to 100 (0 no effect, 100 complete control)
[22] = Postemergence, 31 g ai/ha, visual, scale 0 no effect to 100 complete control
[23] = Preemergence, 31 g ai/ha, scale 0 to 100, 0 no effect, 100 complete control
[24] = Preemergence, 250 g ai/ha, visual, scale 0 no effect to 100 complete control
[25] = 62 g ai/ha, scale 0 to 100 (0 no effect, 100 complete control)
[26] = 125 g ai/ha, scale 0 to 100 (0 no effect, 100 complete control)
[27] = 31 g ai/ha, scale 0 to 100, 0 no effect, 100 complete control
[28] = 250 g ai/ha, visual, scale 0 no effect to 100 complete control

Structure (SMILES): Cc1ccc2ccccc2c1-c1c(OC(=O)OC(C)C)c(C)nn(C)c1=O [Compound 72]
- Plant response rating, Ryegrass, Italian [1, 17]: 80
- Plant response rating, Ryegrass, Italian [1, 18]: 90
- Plant response rating, Ryegrass, Italian [1, 19]: 85
- Plant response rating, Ryegrass, Italian [1, 20]: 100
- Plant response rating, Ryegrass, Italian [1, 21]: 90
- Plant response rating, Ryegrass, Italian [1, 22]: 80
- Plant response rating, Ryegrass, Italian [1, 23]: 90
- Plant response rating, Ryegrass, Italian [1, 24]: 100
- Plant response rating, Arrowleaf Sida [2, 17]: 75
- Plant response rating, Arrowleaf Sida [2, 18]: 35
- Plant response rating, Arrowleaf Sida [2, 19]: 80
- Plant response rating, Arrowleaf Sida [2, 20]: 85
- Plant response rating, Arrowleaf Sida [2, 21]: 90
- Plant response rating, Arrowleaf Sida [2, 22]: 70
- Plant response rating, Arrowleaf Sida [2, 23]: 20
- Plant response rating, Arrowleaf Sida [2, 24]: 65
- Plant response rating, Beggarticks [3, 17]: 100
- Plant response rating, Beggarticks [3, 18]: 80
- Plant response rating, Beggarticks [3, 19]: 98
- Plant response rating, Beggarticks [3, 20]: 98
- Plant response rating, Beggarticks [3, 21]: 98
- Plant response rating, Beggarticks [3, 22]: 90
- Plant response rating, Beggarticks [3, 23]: 70
- Plant response rating, Beggarticks [3, 24]: 100
- Plant response rating, Corn [4, 17]: 10
- Plant response rating, Corn [4, 18]: 0
- Plant response rating, Corn [4, 19]: 20
- Plant response rating, Corn [4, 20]: 0
- Plant response rating, Corn [4, 21]: 30
- Plant response rating, Corn [4, 22]: 0
- Plant response rating, Corn [4, 23]: 0
- Plant response rating, Corn [4, 24]: 0
- Plant response rating, Crabgrass, Large [5, 25]: 0
- Plant response rating, Crabgrass, Large [5, 26]: 30
- Plant response rating, Crabgrass, Large [5, 27]: 0
- Plant response rating, Crabgrass, Large [5, 28]: 90
- Plant response rating, Field Bindweed [6, 17]: 80
- Plant response rating, Field Bindweed [6, 18]: 0
- Plant response rating, Field Bindweed [6, 19]: 95
- Plant response rating, Field Bindweed [6, 20]: 65
- Plant response rating, Field Bindweed [6, 21]: 90
- Plant response rating, Field Bindweed [6, 22]: 70
- Plant response rating, Field Bindweed [6, 23]: 0
- Plant response rating, Field Bindweed [6, 24]: 90
- Plant response rating, Foxtail, Giant [7, 25]: 65
- Plant response rating, Foxtail, Giant [7, 26]: 70
- Plant response rating, Foxtail, Giant [7, 27]: 35
- Plant response rating, Foxtail, Giant [7, 28]: 80
- Plant response rating, Foxtail, Green [8, 25]: 35
- Plant response rating, Foxtail, Green [8, 26]: 65
- Plant response rating, Foxtail, Green [8, 27]: 30
- Plant response rating, Foxtail, Green [8, 28]: 70
- Plant response rating, Horseweed [9, 17]: 60
- Plant response rating, Horseweed [9, 18]: 100
- Plant response rating, Horseweed [9, 19]: 75
- Plant response rating, Horseweed [9, 20]: 100
- Plant response rating, Horseweed [9, 21]: 70
- Plant response rating, Horseweed [9, 22]: 60
- Plant response rating, Horseweed [9, 23]: 0
- Plant response rating, Horseweed [9, 24]: 100
- Plant response rating, Lambsquarters [10, 25]: 80
- Plant response rating, Lambsquarters [10, 26]: 100
- Plant response rating, Lambsquarters [10, 27]: 90
- Plant response rating, Lambsquarters [10, 28]: 100
- Plant response rating, Morningglory [11, 25]: 30
- Plant response rating, Morningglory [11, 26]: 80
- Plant response rating, Morningglory [11, 27]: 20
- Plant response rating, Morningglory [11, 28]: 95
- Plant response rating, Nightshade [12, 25]: 80
- Plant response rating, Nightshade [12, 26]: 100
- Plant response rating, Nightshade [12, 27]: 0
- Plant response rating, Nightshade [12, 28]: 100
- Plant response rating, Panicum, Fall [13, 17]: 80
- Plant response rating, Panicum, Fall [13, 18]: 80
- Plant response rating, Panicum, Fall [13, 19]: 80
- Plant response rating, Panicum, Fall [13, 20]: 90
- Plant response rating, Panicum, Fall [13, 21]: 85
- Plant response rating, Panicum, Fall [13, 22]: 75
- Plant response rating, Panicum, Fall [13, 23]: 75
- Plant response rating, Panicum, Fall [13, 24]: 98
- Plant response rating, Ragweed [14, 17]: 90
- Plant response rating, Ragweed [14, 18]: 90
- Plant response rating, Ragweed [14, 19]: 90
- Plant response rating, Ragweed [14, 20]: 90
- Plant response rating, Ragweed [14, 21]: 95
- Plant response rating, Ragweed [14, 22]: 85
- Plant response rating, Ragweed [14, 23]: 0
- Plant response rating, Ragweed [14, 24]: 100
- Plant response rating, Sandbur [15, 17]: 70
- Plant response rating, Sandbur [15, 18]: 35
- Plant response rating, Sandbur [15, 19]: 75
- Plant response rating, Sandbur [15, 20]: 60
- Plant response rating, Sandbur [15, 21]: 80
- Plant response rating, Sandbur [15, 22]: 60
- Plant response rating, Sandbur [15, 23]: 0
- Plant response rating, Sandbur [15, 24]: 70
- Plant response rating, Velvetleaf [16, 25]: 40
- Plant response rating, Velvetleaf [16, 26]: 80
- Plant response rating, Velvetleaf [16, 27]: 50
- Plant response rating, Velvetleaf [16, 28]: 90

Structure (SMILES): Cc1nn(C)c(=O)c(-c2ccc(Br)c3ccccc23)c1O [Compound 75]
- Plant response rating, Ryegrass, Italian [1, 17]: 80
- Plant response rating, Ryegrass, Italian [1, 18]: 100
- Plant response rating, Ryegrass, Italian [1, 19]: 85
- Plant response rating, Ryegrass, Italian [1, 20]: 100
- Plant response rating, Ryegrass, Italian [1, 21]: 90
- Plant response rating, Ryegrass, Italian [1, 22]: 75
- Plant response rating, Ryegrass, Italian [1, 23]: 100
- Plant response rating, Ryegrass, Italian [1, 24]: 100
- Plant response rating, Arrowleaf Sida [2, 17]: 70
- Plant response rating, Arrowleaf Sida [2, 18]: 75
- Plant response rating, Arrowleaf Sida [2, 19]: 80
- Plant response rating, Arrowleaf Sida [2, 20]: 90
- Plant response rating, Arrowleaf Sida [2, 21]: 80
- Plant response rating, Arrowleaf Sida [2, 22]: 70
- Plant response rating, Arrowleaf Sida [2, 23]: 50
- Plant response rating, Arrowleaf Sida [2, 24]: 98
- Plant response rating, Beggarticks [3, 17]: 95
- Plant response rating, Beggarticks [3, 18]: 80
- Plant response rating, Beggarticks [3, 19]: 100
- Plant response rating, Beggarticks [3, 20]: 100
- Plant response rating, Beggarticks [3, 21]: 100
- Plant response rating, Beggarticks [3, 22]: 100
- Plant response rating, Beggarticks [3, 23]: 35
- Plant response rating, Beggarticks [3, 24]: 100
- Plant response rating, Corn [4, 17]: 0
- Plant response rating, Corn [4, 18]: 0
- Plant response rating, Corn [4, 19]: 0
- Plant response rating, Corn [4, 20]: 0
- Plant response rating, Corn [4, 21]: 0
- Plant response rating, Corn [4, 22]: 0
- Plant response rating, Corn [4, 23]: 0
- Plant response rating, Corn [4, 24]: 35
- Plant response rating, Crabgrass, Large [5, 25]: 0
- Plant response rating, Crabgrass, Large [5, 26]: 0
- Plant response rating, Crabgrass, Large [5, 27]: 0
- Plant response rating, Crabgrass, Large [5, 28]: 30
- Plant response rating, Field Bindweed [6, 17]: 90
- Plant response rating, Field Bindweed [6, 18]: 5
- Plant response rating, Field Bindweed [6, 19]: 80
- Plant response rating, Field Bindweed [6, 20]: 100
- Plant response rating, Field Bindweed [6, 21]: 85
- Plant response rating, Field Bindweed [6, 22]: 85
- Plant response rating, Field Bindweed [6, 23]: 0
- Plant response rating, Field Bindweed [6, 24]: 98
- Plant response rating, Foxtail, Giant [7, 25]: 5
- Plant response rating, Foxtail, Giant [7, 26]: 35
- Plant response rating, Foxtail, Giant [7, 27]: 0
- Plant response rating, Foxtail, Giant [7, 28]: 75
- Plant response rating, Foxtail, Green [8, 25]: 0
- Plant response rating, Foxtail, Green [8, 26]: 0
- Plant response rating, Foxtail, Green [8, 27]: 0
- Plant response rating, Foxtail, Green [8, 28]: 90
- Plant response rating, Horseweed [9, 17]: 50
- Plant response rating, Horseweed [9, 19]: 60
- Plant response rating, Horseweed [9, 21]: 50
- Plant response rating, Horseweed [9, 22]: 40
- Plant response rating, Lambsquarters [10, 25]: 100
- Plant response rating, Lambsquarters [10, 26]: 100
- Plant response rating, Lambsquarters [10, 27]: 100
- Plant response rating, Lambsquarters [10, 28]: 100
- Plant response rating, Morningglory [11, 25]: 30
- Plant response rating, Morningglory [11, 26]: 60
- Plant response rating, Morningglory [11, 27]: 0
- Plant response rating, Morningglory [11, 28]: 100
- Plant response rating, Nightshade [12, 25]: 0
- Plant response rating, Nightshade [12, 26]: 90
- Plant response rating, Nightshade [12, 27]: 0
- Plant response rating, Nightshade [12, 28]: 100
- Plant response rating, Panicum, Fall [13, 17]: 40
- Plant response rating, Panicum, Fall [13, 18]: 50
- Plant response rating, Panicum, Fall [13, 19]: 50
- Plant response rating, Panicum, Fall [13, 20]: 80
- Plant response rating, Panicum, Fall [13, 21]: 60
- Plant response rating, Panicum, Fall [13, 22]: 50
- Plant response rating, Panicum, Fall [13, 23]: 10
- Plant response rating, Panicum, Fall [13, 24]: 90
- Plant response rating, Ragweed [14, 17]: 70
- Plant response rating, Ragweed [14, 18]: 65
- Plant response rating, Ragweed [14, 19]: 60
- Plant response rating, Ragweed [14, 20]: 80
- Plant response rating, Ragweed [14, 21]: 90
- Plant response rating, Ragweed [14, 22]: 55
- Plant response rating, Ragweed [14, 23]: 35
- Plant response rating, Ragweed [14, 24]: 100
- Plant response rating, Sandbur [15, 17]: 20
- Plant response rating, Sandbur [15, 18]: 10
- Plant response rating, Sandbur [15, 19]: 20
- Plant response rating, Sandbur [15, 20]: 40
- Plant response rating, Sandbur [15, 21]: 30
- Plant response rating, Sandbur [15, 22]: 10
- Plant response rating, Sandbur [15, 23]: 0
- Plant response rating, Sandbur [15, 24]: 70
- Plant response rating, Velvetleaf [16, 25]: 85
- Plant response rating, Velvetleaf [16, 26]: 100
- Plant response rating, Velvetleaf [16, 27]: 35
- Plant response rating, Velvetleaf [16, 28]: 98
